Source: ChEMBL document CHEMBL4483862, “Open-source discovery of chemical leads for next-generation chemoprotective antimalarials” (2018)
pIC50: −log10 of the molar value.

Tested on: Plasmodium berghei
Test: Luciferase/luciferin-expressing antifolate-resistant parasites were used to infect a culture of HepG2 cells that were pre-incubated with compounds. Infected hepatocytes emit light due to the luciferase reaction. Assay results are presented as the percent inhibition of light emission compared to control. […]
Type: functional
Details: sporozoite; for IC90: read-out: LUCIFERASE INFECTION ASSAY - IC90

## O=C(Nc1ccc(Cl)c(Cl)c1)Nc1ccc(Cl)c(Cl)c1
HEPG2TOX_HILL_SLOPE 2.86, HEPG2TOX_R_SQUARED 0.877, PBLUC_HILL_SLOPE 1.38, PBLUC_R_SQUARED 0.733, read-out: LUCIFERASE INFECTION ASSAY - IC50
  pIC50: 6.56
  IC90: 1.35 µM

## COc1ccc(S(=O)(=O)NN(C)c2nc(C(F)(F)F)nc3ccccc23)cc1
HEPG2TOX_HILL_SLOPE 2.85, HEPG2TOX_R_SQUARED 0.931, PBLUC_HILL_SLOPE 2.16, PBLUC_R_SQUARED 0.738, read-out: LUCIFERASE INFECTION ASSAY - IC50
  pIC50: 5.59
  IC90: 7.15 µM

## COc1cc(-c2cn3c(-c4ccc5ncccc5c4)cnc3cn2)ccc1O
HEPG2TOX_HILL_SLOPE 2.88, HEPG2TOX_R_SQUARED 0.967, PBLUC_HILL_SLOPE 7.35, PBLUC_R_SQUARED 0.638, read-out: LUCIFERASE INFECTION ASSAY - IC50
  pIC50: 5.47
  IC90: 4.57 µM

## Cc1ccsc1/C=N/Nc1nc2ccccc2nc1C(F)(F)F
HEPG2TOX_HILL_SLOPE 2.86, HEPG2TOX_R_SQUARED 0.79, PBLUC_HILL_SLOPE 19.7, PBLUC_R_SQUARED 0.0461, read-out: LUCIFERASE INFECTION ASSAY - IC50
  pIC50: 5.07
  IC90: 9.51 µM

## Cc1cnc(NC(=O)c2ccccc2NS(=O)(=O)c2cccc(C(F)(F)F)c2)s1
HEPG2TOX_HILL_SLOPE 2.85, HEPG2TOX_R_SQUARED 0.86, read-out: LUCIFERASE INFECTION ASSAY - IC50
  pIC50: < 5.00
  IC90: > 10 µM

## Cc1nn(-c2ccccc2)c(C)c1C(=O)Nc1nc2c(s1)CCCC2
HEPG2TOX_HILL_SLOPE 2.86, HEPG2TOX_R_SQUARED 0.355, PBLUC_HILL_SLOPE 1.92, 0.823, PBLUC_R_SQUARED 0.870, 0.934, read-out: LUCIFERASE INFECTION ASSAY - IC50
  pIC50: 6.24
  IC90: 4.22 µM

## CCCCNC(=O)c1c(NC(=O)c2cc(F)ccc2F)nc2ccccn12
HEPG2TOX_HILL_SLOPE 2.83, HEPG2TOX_R_SQUARED 0.745, PBLUC_HILL_SLOPE 13.2, PBLUC_R_SQUARED 0.5, read-out: LUCIFERASE INFECTION ASSAY - IC50
  pIC50: 5.52
  IC90: 3.57 µM

## CCN(CC)c1ccc(NC(=O)c2cccc(F)c2)cc1
HEPG2TOX_HILL_SLOPE 2.87, HEPG2TOX_R_SQUARED 0.815, PBLUC_HILL_SLOPE 5.54, PBLUC_R_SQUARED 0.522, read-out: LUCIFERASE INFECTION ASSAY - IC50
  pIC50: 5.36
  IC90: 6.44 µM

## CC(C)Cc1ccc(CN2CCC3(CC2)C(=O)N(CC(C)C)C(=O)N3C)cc1
HEPG2TOX_HILL_SLOPE 2.88, HEPG2TOX_R_SQUARED 0.972, PBLUC_HILL_SLOPE 3.02, PBLUC_R_SQUARED 0.492, read-out: LUCIFERASE INFECTION ASSAY - IC50
  pIC50: 5.30
  IC90: > 8.56 µM

## COc1ccc(-c2nc(C(=O)N3CCc4ccccc43)cs2)cc1OC
HEPG2TOX_HILL_SLOPE 2.84, HEPG2TOX_R_SQUARED 0.79, PBLUC_HILL_SLOPE 2.13, PBLUC_R_SQUARED 0.686, read-out: LUCIFERASE INFECTION ASSAY - IC50
  pIC50: 6.06
  IC90: 2.46 µM

## N#CC(C#N)=NNc1cc(Cl)cc(Cl)c1
HEPG2TOX_HILL_SLOPE 2.85, HEPG2TOX_R_SQUARED 0.913, PBLUC_HILL_SLOPE 19.7, PBLUC_R_SQUARED 0.581, read-out: LUCIFERASE INFECTION ASSAY - IC50
  pIC50: 6.30
  IC90: 0.565 µM

## c1ccc(C(Nc2ncnc3sccc23)c2cccs2)cc1 (configuration not stated)
HEPG2TOX_HILL_SLOPE 2.82, HEPG2TOX_R_SQUARED 0.952, PBLUC_HILL_SLOPE 3.44, PBLUC_R_SQUARED 0.151, read-out: LUCIFERASE INFECTION ASSAY - IC50
  pIC50: 5.14
  IC90: > 10 µM

## COc1ccc(F)cc1CN(Cc1ccc(C(=O)NC2CC2)cc1)Cc1ccco1
HEPG2TOX_HILL_SLOPE 2.87, HEPG2TOX_R_SQUARED 0.785, PBLUC_HILL_SLOPE 1.38, 16.4, PBLUC_R_SQUARED 0.804, 0.717, read-out: LUCIFERASE INFECTION ASSAY - IC50
  pIC50: 6.54
  IC90: 0.722 µM

## COc1ccc(Sc2nc(N(C)C)ncc2OC)cc1
HEPG2TOX_HILL_SLOPE 2.8, HEPG2TOX_R_SQUARED 0.967, PBLUC_HILL_SLOPE 2.43, PBLUC_R_SQUARED 0.609, read-out: LUCIFERASE INFECTION ASSAY - IC50
  pIC50: 5.21
  IC90: > 11.3 µM

## CCCCNC(=O)c1c(NC(=O)c2cccc(OC)c2)nc2ccccn12
HEPG2TOX_HILL_SLOPE 2.8, HEPG2TOX_R_SQUARED 0.959, PBLUC_HILL_SLOPE 5.29, PBLUC_R_SQUARED 0.462, read-out: LUCIFERASE INFECTION ASSAY - IC50
  pIC50: 5.49
  IC90: 4.95 µM

## O=C(c1cnc(Nc2cccc(Oc3ccccc3)c2)[nH]1)c1ccccc1F
HEPG2TOX_HILL_SLOPE 2.89, HEPG2TOX_R_SQUARED 0.712, PBLUC_HILL_SLOPE 12, PBLUC_R_SQUARED 0.715, read-out: LUCIFERASE INFECTION ASSAY - IC50
  pIC50: 5.55
  IC90: 3.36 µM

## O=C(NNC(=O)c1cnn(-c2ccccc2)c1C(F)(F)F)c1ccc2ccccc2n1
HEPG2TOX_HILL_SLOPE 2.84, HEPG2TOX_R_SQUARED 0.957, PBLUC_HILL_SLOPE 16.4, PBLUC_R_SQUARED 0.688, read-out: LUCIFERASE INFECTION ASSAY - IC50
  pIC50: 5.48
  IC90: 3.75 µM

## C[C@]12CCC3C(CC[C@]4(O)C[C@@H](O)CC[C@]34/C=N/O)[C@@]1(O)CC[C@@H]2C1=CC(=O)OC1 (some centres not stated)
HEPG2TOX_HILL_SLOPE 2.86, HEPG2TOX_R_SQUARED 0.935, PBLUC_HILL_SLOPE 2.2, PBLUC_R_SQUARED 0.866, read-out: LUCIFERASE INFECTION ASSAY - IC50
  pIC50: 7.22
  IC90: 0.165 µM

## COc1ccc(-c2csc3ncnc(NCC(=O)NC(C)C)c23)cc1
HEPG2TOX_HILL_SLOPE 2.82, HEPG2TOX_R_SQUARED 0.984, PBLUC_HILL_SLOPE 1.1, PBLUC_R_SQUARED 0.732, read-out: LUCIFERASE INFECTION ASSAY - IC50
  pIC50: 5.59
  IC90: > 10 µM

## N#Cc1ccc(NCCNc2nc3ccccc3s2)nc1
HEPG2TOX_HILL_SLOPE 2.81, HEPG2TOX_R_SQUARED 0.729, PBLUC_HILL_SLOPE 4.52, PBLUC_R_SQUARED 0.618, read-out: LUCIFERASE INFECTION ASSAY - IC50
  pIC50: 5.58
  IC90: 4.32 µM

## COc1cc(Nc2ncc3c(n2)CCN(C(=O)Nc2ccc(OC(F)(F)F)cc2)C3)cc(OC)c1OC
HEPG2TOX_HILL_SLOPE 2.89, HEPG2TOX_R_SQUARED 0.596, read-out: LUCIFERASE INFECTION ASSAY - IC50
  pIC50: < 5.20
  IC90: > 6.35 µM

## c1ccc(CNc2nc3cnc(-c4ccc5ccccc5c4)cc3[nH]2)cc1
HEPG2TOX_HILL_SLOPE 2.88, HEPG2TOX_R_SQUARED 0.737, PBLUC_HILL_SLOPE 2.3, PBLUC_R_SQUARED 0.668, read-out: LUCIFERASE INFECTION ASSAY - IC50
  pIC50: 5.31
  IC90: > 10 µM

## COc1ccc(/C=C2\N=C(SCc3cn4ccsc4n3)N(c3cc(C)cc(C)c3)C2=O)cc1
HEPG2TOX_HILL_SLOPE 2.87, HEPG2TOX_R_SQUARED 0.677, PBLUC_HILL_SLOPE 15.6, PBLUC_R_SQUARED 0.508, read-out: LUCIFERASE INFECTION ASSAY - IC50
  pIC50: 5.02
  IC90: > 10 µM

## CC(C)(C)c1ccc(-c2cc(NC(=O)c3ccc(Cl)cc3Cl)[nH]n2)cc1
HEPG2TOX_HILL_SLOPE 2.82, HEPG2TOX_R_SQUARED 0.976, PBLUC_HILL_SLOPE 3.98, PBLUC_R_SQUARED 0.745, read-out: LUCIFERASE INFECTION ASSAY - IC50
  pIC50: 5.75
  IC90: 3.08 µM

## CCC(C)NC(=O)c1c(NC(=O)c2ccccc2Cl)nc2ccc(C)cn12 (configuration not stated)
HEPG2TOX_HILL_SLOPE 2.82, HEPG2TOX_R_SQUARED 0.923, PBLUC_HILL_SLOPE 8.99, PBLUC_R_SQUARED 0.855, read-out: LUCIFERASE INFECTION ASSAY - IC50
  pIC50: 5.53
  IC90: 3.78 µM

## COc1ccc(S(=O)(=O)N2CCSc3cc(Cl)ccc32)cc1
HEPG2TOX_HILL_SLOPE 2.85, HEPG2TOX_R_SQUARED 0.925, PBLUC_HILL_SLOPE 20.1, PBLUC_R_SQUARED 0.623, read-out: LUCIFERASE INFECTION ASSAY - IC50
  pIC50: 5.55
  IC90: 3.18 µM

## Cc1c(C#N)c(Sc2ccccc2NC(=O)c2ccco2)nc2ccccc12
HEPG2TOX_HILL_SLOPE 2.88, HEPG2TOX_R_SQUARED 0.661, PBLUC_HILL_SLOPE 2.8, PBLUC_R_SQUARED 0.14, read-out: LUCIFERASE INFECTION ASSAY - IC50
  pIC50: 5.42
  IC90: 8.38 µM

## COC(=O)c1c(OC)ccc(NC(=O)NC(=O)c2c(OC)c(Cl)cc(Cl)c2OC)c1OC
HEPG2TOX_HILL_SLOPE 2.83, HEPG2TOX_R_SQUARED 0.683, PBLUC_HILL_SLOPE 11.5, PBLUC_R_SQUARED 0.299, read-out: LUCIFERASE INFECTION ASSAY - IC50
  pIC50: 5.66
  IC90: 2.63 µM

## COc1ccc(C)cc1N1CC(C(=O)Nc2nc3ccccc3[nH]2)CC1=O (configuration not stated)
HEPG2TOX_HILL_SLOPE 2.88, HEPG2TOX_R_SQUARED 0.929, PBLUC_HILL_SLOPE 3.77, PBLUC_R_SQUARED 0.362, read-out: LUCIFERASE INFECTION ASSAY - IC50
  pIC50: 5.62
  IC90: 4.27 µM

## CN(C)c1ccc(C(=O)/C=C/c2ccccc2C(F)(F)F)cc1
HEPG2TOX_HILL_SLOPE 2.82, HEPG2TOX_R_SQUARED 0.851, PBLUC_HILL_SLOPE 15.9, PBLUC_R_SQUARED 0.328, read-out: LUCIFERASE INFECTION ASSAY - IC50
  pIC50: 5.46
  IC90: 3.94 µM

## Cc1cccc(C(=O)Nc2ccc(N3CCc4sccc4C3)nc2)c1[N+](=O)[O-]
HEPG2TOX_HILL_SLOPE 2.87, HEPG2TOX_R_SQUARED 0.919, PBLUC_HILL_SLOPE 1.54, PBLUC_R_SQUARED 0.645, read-out: LUCIFERASE INFECTION ASSAY - IC50
  pIC50: 5.60
  IC90: > 10 µM
